We go through 39 compounds from ChEMBL document CHEMBL4715854, “Discovery of Roblitinib (FGF401) as a Reversible-Covalent Inhibitor of the Kinase Activity of Fibroblast Growth Factor Receptor 4” (J Med Chem, 2020).

In brackets after ≈: the same amount, converted by molar mass. A value given as a limit tells only on which side of the number the result lay.

The half-life is the time in which the quantity being followed falls by half. A high value points to slow loss. As a reminder, the bioavailability is the share of a dose that reaches the circulation, judged against a reference dose that is usually intravenous. In general, solubility refers to how much of the substance goes into solution per volume. Higher therefore signals much dissolved substance.

Data set [1] is described as follows: Drug metabolism in human liver microsome assessed as reduction of aldehyde group at 10 mM measured after 15 mins in presence of NADPH by LC-MS analysis. The format is ADME. The note with it: microsomes, 10000 µM. (In general: Liver microsomes are a subcellular fraction often used to study metabolism.)
A short description of data set [2]: Permeability of the compound in human Caco-2 cells assessed as compound recovery at 10 uM measured after 2 hrs by LC/MS/MS analysis. The class given is ADME, cell-based. To be noted: read-out: Drug recovery. On the technique in general: Caco-2 cells form a polarised layer with tight junctions and transporters.
The nature of data set [3]: Drug metabolism in rat liver microsome assessed as reduction of aldehyde group at 10 mM measured after 15 mins in presence of NADPH by LC-MS analysis. The format is ADME. The note with it: microsomes, 10000 µM.
Data set [4] in a line: Clearance in Crl:CD (SD) rat at 1 mg/kg, iv or 3 mg/kg, po measured up to 24 hrs by LC-MS/MS analysis. The format is ADME, organism-based. To be noted: in vivo.
Data set [5] in a line: Thermodynamic solubility of compound in phosphate buffer at pH 6.8 measured after 15 mins by shake-flask method based LC-HRMS analysis. The format is physicochemical. To be noted: read-out: Therm_solubility.
A short description of data set [6]: Half-life in Crl:CD (SD) rat at 1 mg/kg, iv or 3 mg/kg, po measured upto 24 hrs by LC-MS/MS analysis. The class given is ADME, organism-based. To be noted: in vivo.
The nature of data set [7]: Oral bioavailability in Crl:CD (SD) rat at 3 mg/kg measured upto 24 hrs by LC-MS/MS analysis. The format is ADME, organism-based. To be noted: Crl:CD (SD), in vivo.
Data set [8] can be described thus: Dose normalized AUC in Crl:CD (SD) rat at 3 mg/kg, po measured up to 24 hrs by LC-MS/MS analysis. The class given is ADME, organism-based. The note with it: in vivo.
A short description of data set [9]: Volume of distribution at steady state in Crl:CD (SD) rat at 1 mg/kg, iv or 3 mg/kg, po measured upto 24 hrs by LC-MS/MS analysis. The class given is ADME, organism-based. The note with it: in vivo, read-out: Vdss.
Data set [10] can be described thus: Dose normalized AUC in Crl:CD (SD) rat at 1 mg/kg, iv measured up to 24 hrs by LC-MS/MS analysis. The class given is ADME, organism-based. To be noted: in vivo.
Data set [11] is described as follows: Aqueous solubility of compound at pH 6.8. The format is physicochemical. The note with it: buffer, time 15 min.

On to `Cc1cc2c(nc1C=O)N(C(=O)Nc1ccc(C#N)cn1)CCC2`, for which the Drug metabolism entry in data set [1] and in data set [3] was “Metabolite_Detected” throughout. Further, in data set [2], the recovery at 2 h, 10 µM is under 10%.
For `COCCNc1cc(NC(=O)N2CCCc3cc(N4CCOCC4=O)c(C=O)nc32)ncc1C#N`, the Drug metabolism result in [1] and in data set [3] was “Metabolite_Detected” throughout. Also, the recovery at 2 h, 10 µM in [2] is under 10%.
For the compound `O=Cc1nc2c(C(=O)Nc3ccc(C(F)(F)F)cn3)cccc2cc1O`, the Drug metabolism result in [1] and in data set [3] was “Metabolite_Detected” each time. The recovery at 2 h, 10 µM in data set [2] is under 10%.
For the compound `N#Cc1ccc(NC(=O)N2CCCc3cc(N)c(C=O)nc32)nc1`, the Drug metabolism result in data set [1] and in data set [3] was “Metabolite_Detected” each time. The recovery at 2 h, 10 µM in [2] is under 10%.
For `CC1(O)CCN(c2cc(NC(=O)N3CCCc4ccc(C=O)nc43)ncc2C#N)CC1`, the Drug metabolism entry in data set [1] and in data set [3] was “Metabolite_Detected” throughout. The recovery at 2 h, 10 µM in data set [2] is under 10%.
On to `COC[C@@H](C)Nc1cc(NC(=O)N2CCCc3cc(CN4CCN(C)CC4=O)c(C=O)nc32)ncc1C#N`, for which the clearance in data set [4] turned out to be 35 mL/min/kg.
Consider `O=Cc1ccc2c(n1)N(C(=O)Nc1ccc(C(F)(F)F)cn1)CCO2`, for which the Drug metabolism entry in data set [1] and in data set [3] was “Metabolite_Detected” in each case. Moreover, the recovery at 2 h, 10 µM in [2] is under 10%.
In the case of `COCCNc1cc(NC(=O)N2CCCc3cc(C4CCN(C5COC5)CC4)c(C=O)nc32)ncc1C#N`, the Drug metabolism result in data set [1] and in data set [3] was “Metabolite_Detected” in each case. Moreover, the recovery at 2 h, 10 µM in [2] was under 10%.
For the compound `COCCOc1cc(NC(=O)N2CCCc3cc(Br)c(C=O)nc32)ncc1C#N`, the Drug metabolism entry in data set [1] and in data set [3] was “Metabolite_Detected” each time. Besides, the recovery at 2 h, 10 µM in data set [2] was under 10%.
For the compound `N#Cc1cnc(NC(=O)N2CCCc3cc(CO)c(C=O)nc32)cc1O[C@@H]1CCOC1`, the Drug metabolism result in data set [1] and in data set [3] was “Metabolite_Detected” throughout. Further, the recovery at 2 h, 10 µM in [2] is under 10%.
For `COC[C@H](C)Nc1cc(NC(=O)N2CCCc3cc(CN4CCN(C)CC4=O)c(C=O)nc32)ncc1C#N`, the clearance in [4] turned out to be 19 mL/min/kg.
Turning to `COCCOc1cc(NC(=O)N2CCCc3ccc(C=O)nc32)ncc1C#N`, the Drug metabolism result in [1] and in data set [3] was “Metabolite_Detected” throughout. Further, in data set [2], the recovery at 2 h, 10 µM was under 10%.
Consider `COCCNc1cc(NC(=O)N(CCOC)c2cccc(C=O)n2)ncc1C#N`, for which the Drug metabolism result in data set [1] and in data set [3] was “Metabolite_Detected” each time. Also, the recovery at 2 h, 10 µM in [2] was under 10%.
For `COCCOc1cc(NC(=O)N2CCCc3cc(CO)c(C=O)nc32)ncc1C#N`, the solubility thermodynamic at […] in data set [5] amounted to 11 µM (≈ 4.53 µg/mL). In [6], this compound showed a half-life of 120 min. The same compound gave a clearance in [4] of 52 mL/min/kg. The Drug metabolism entry in data set [1] and in data set [3] was “Metabolite_Detected” each time. For the same compound, the bioavailability in data set [7] is 24%. In [8], this compound yielded an AUC/dose of 194 nM·h. The Vd in data set [9] was 2.5 L/kg. In addition, in [2], the recovery at 2 h, 10 µM is under 10%.
Take `COCCNc1cc(NC(=O)N2CCCc3cc(CN(C)C(C)=O)c(C=O)nc32)ncc1C#N`: in [5], the solubility thermodynamic at […] was 8 µM (≈ 3.72 µg/mL). The same compound had a half-life in [6] of 1660 min. In [4], this compound registered a clearance of 16 mL/min/kg. In [7], this compound came in with a bioavailability of 26%. The AUC/dose came to 599 nM·h in data set [8] and 2307 nM·h in data set [10]. For the same compound, the Vd in data set [9] is 8.6 L/kg.
Take `COCCOc1cc(NC(=O)N2CCCc3cc(C(F)F)c(C=O)nc32)ncc1C#N`: the Drug metabolism entry in data set [1] and in data set [3] was “Metabolite_Detected” each time. For the same compound, the recovery at 2 h, 10 µM in data set [2] was under 10%.
`N#Cc1ccc(NC(=O)N2CCCc3cc(C4CC4)c(C=O)nc32)nc1`: the Drug metabolism entry in data set [1] and in data set [3] was “Metabolite_Detected” each time. The recovery at 2 h, 10 µM in data set [2] was under 10%.
In data set [4], `COCCNc1cc(NC(=O)N(C)c2ccc(CN3CCN(C)CC3=O)c(C=O)n2)ncc1C#N` registered a clearance of 88 mL/min/kg.
Regarding `CC(C)Oc1cc(NC(=O)N2CCCc3ccc(C=O)nc32)ncc1C#N`, the Drug metabolism result in [1] and in data set [3] was “Metabolite_Detected” throughout. For the same compound, the recovery at 2 h, 10 µM in [2] is under 10%.
Take `COCCOc1cc(NC(=O)N2CCCc3cc(COC)c(C=O)nc32)ncc1C#N`: the Drug metabolism entry in data set [1] and in data set [3] was “Metabolite_Detected” in each case. In addition, the recovery at 2 h, 10 µM in data set [2] was under 10%.
On to `CCN1CCN(c2ccc(Nc3cc(N(C)C(=O)Nc4c(Cl)c(OC)cc(OC)c4Cl)ncn3)cc2)CC1` [INFIGRATINIB], for which the Drug metabolism entry in data set [1] and in data set [3] was “Metabolite_Detected” throughout. Besides, the recovery at 2 h, 10 µM in [2] is under 10%.
On to `CC(C)COc1cc(N2CCC(N(C)C)CC2)ccc1Nc1ncc(C#N)c(N[C@H]2[C@@H](C(N)=O)[C@@H]3C=C[C@H]2C3)n1`, for which the Drug metabolism entry in data set [1] and in [3] was “Metabolite_Detected” throughout. Also, the recovery at 2 h, 10 µM in data set [2] is under 10%.
In the case of `COCCNc1cc(NC(=O)N2CCCc3cc(-c4ccnn4C)c(C=O)nc32)ncc1C#N`, the Drug metabolism result in data set [1] and in [3] was “Metabolite_Detected” throughout. Moreover, the recovery at 2 h, 10 µM in data set [2] is under 10%.
On to `N#Cc1ccc(NC(=O)N2CCCCc3ccc(C=O)nc32)nc1`, for which the Drug metabolism result in data set [1] and in [3] was “Metabolite_Detected” in each case. Also, the recovery at 2 h, 10 µM in data set [2] was under 10%.
`COCCNc1cc(NC(=O)N2CCCc3cc(C4CCOCC4)c(C=O)nc32)ncc1C#N`: the Drug metabolism result in data set [1] and in data set [3] was “Metabolite_Detected” throughout. Moreover, the recovery at 2 h, 10 µM in [2] was under 10%.
On to `O=Cc1ccc2cccc(C(=O)Nc3ccc(C(F)(F)F)cn3)c2n1`, for which the solubility thermodynamic at […] in data set [5] is under 2.9 µM.
`CC(=O)N(C)Cc1cc2c(nc1C=O)N(C(=O)Nc1ccc(C#N)cn1)CCC2`: the solubility at […] in data set [11] is 18 µM (≈ 7.06 µg/mL).
For the compound `N#Cc1ccc(NC(=O)N2CCCc3cc(Cl)c(C=O)nc32)nc1`, the Drug metabolism result in [1] and in [3] was “Metabolite_Detected” throughout. Also, the recovery at 2 h, 10 µM in data set [2] was under 10%.
For `N#Cc1cnc(NC(=O)N2CCCc3ccc(C=O)nc32)cn1`, the Drug metabolism result in data set [1] and in data set [3] was “Metabolite_Detected” throughout. In [2], the recovery at 2 h, 10 µM is under 10%.
Take `COCCOc1cc(NC(=O)N2CCCc3cc(C(F)(F)F)c(C=O)nc32)ncc1C#N`: the Drug metabolism result in data set [1] and in data set [3] was “Metabolite_Detected” throughout. In addition, the recovery at 2 h, 10 µM in data set [2] is under 10%.
For `N#Cc1cnc(NC(=O)N2CCCc3cc(CO)c(C=O)nc32)cc1O[C@H]1CCOC1`, the Drug metabolism entry in [1] and in data set [3] was “Metabolite_Detected” in each case. In addition, the recovery at 2 h, 10 µM in data set [2] is under 10%.
On to `COCCNc1cc(NC(=O)N(C)c2cccc(C=O)n2)ncc1C#N`, for which the Drug metabolism entry in data set [1] and in data set [3] was “Metabolite_Detected” throughout. The recovery at 2 h, 10 µM in data set [2] was under 10%.
For `C=CC(=O)Nc1ccccc1C(=O)Nc1cc(CCc2cc(OC)cc(OC)c2)[nH]n1`, the Drug metabolism result in [1] and in data set [3] was “Metabolite_Detected” in each case. Besides, in data set [2], the recovery at 2 h, 10 µM was under 10%.
Take `COCCNc1cc(NC(=O)N2CCCc3cc(-c4cccnc4)c(C=O)nc32)ncc1C#N`: the Drug metabolism entry in data set [1] and in data set [3] was “Metabolite_Detected” in each case. For the same compound, in data set [2], the recovery at 2 h, 10 µM is under 10%.
As to `COc1cc2c(nc1C=O)N(C(=O)Nc1ccc(C#N)cn1)CCC2`, the Drug metabolism result in [1] and in [3] was “Metabolite_Detected” each time. In [2], the recovery at 2 h, 10 µM is under 10%.
With `CN(C)Cc1cc2c(nc1C=O)N(C(=O)Nc1ccc(C#N)cn1)CCC2`, the Drug metabolism entry in [1] and in [3] was “Metabolite_Detected” throughout. Moreover, the recovery at 2 h, 10 µM in [2] is under 10%.
With `N#Cc1ccc(NC(=O)N2CCCc3cc(CC(=O)O)c(C=O)nc32)nc1`, the Drug metabolism entry in data set [1] and in data set [3] was “Metabolite_Detected” each time. Also, in [2], the recovery at 2 h, 10 µM is under 10%.
As for `CC(C)Oc1cc(NC(=O)N2CCc3ccc(C=O)nc32)ncc1C#N`, the Drug metabolism entry in [1] and in data set [3] was “Metabolite_Detected” in each case. Besides, in data set [2], the recovery at 2 h, 10 µM was under 10%.
For the compound `N#Cc1ccc(NC(=O)N2CCCc3cc(CO)c(C=O)nc32)nc1`, the Drug metabolism entry in [1] and in data set [3] was “Metabolite_Detected” throughout. For the same compound, in data set [2], the recovery at 2 h, 10 µM is under 10%.
